Patent US6737383B1, “Herbicidal oxadiazolidines” (priority 1999, dated 2004)

Legend:
[1] = tested on: pigweed; assay: Test B pre/postemergence pigweed; assay type: in vivo, Amaranthus retroflexus
Procedure, shortened: (§1)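 Response is a visual 0-to-10 score relative to untreated plants, where 0 means no effect and 10 means complete control, taken twelve to sixteen days after application. Treatments went onto soil at planting and onto foliage of 1- to 4-leaf plants, using a surfactant-containing non-phytotoxic solvent.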

[2] = tested on: cocklebur; assay: Test B pre/postemergence cocklebur; assay type: in vivo, Xanthium strumarium
Procedure, shortened: as §1

[3] = tested on: smallflower flatsedge; assay: Test B flood test smallflower flatsedge; assay type: in vivo, Cyperus difformis; conditions: for S. Flatsedge plant response rating: Postemergence section (flood test species)
Procedure, shortened: (§2)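 Read-out is a visual response score from 0 (no effect) to 10 (complete control), assigned by comparison with untreated controls. Treatment was applied at the 2-leaf stage, and plants stayed in the greenhouse for twelve to sixteen days before scoring.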

[4] = tested on: rice; assay: Test B flood test rice; assay type: in vivo, Oryza sativa; conditions: for Rice plant response rating: Postemergence section (flood test species)
Procedure, shortened: as §2

[5] = tested on: bedstraw; assay: Test B pre/postemergence bedstraw; assay type: in vivo, Galium aparine; conditions: Postemergence
Procedure, shortened: as §1

[6] = tested on: velvetleaf; assay: Test B pre/postemergence velvetleaf; assay type: in vivo, Abutilon theophrasti
Procedure, shortened: as §1

[7] = tested on: surinam grass; assay: Test B pre/postemergence surinam grass; assay type: in vivo, Brachiaria decumbens
Procedure, shortened: as §1

[8] = tested on: blackgrass; assay: Test B pre/postemergence blackgrass; assay type: in vivo, Alopecurus myosuroides
Procedure, shortened: as §1

[9] = tested on: giant foxtail; assay: Test B pre/postemergence giant foxtail; assay type: in vivo, Setaria faberii
Procedure, shortened: as §1

[10] = tested on: morningglory; assay: Test B pre/postemergence morningglory; assay type: in vivo, Ipomoea hederacea
Procedure, shortened: as §1

[11] = tested on: soybean; assay: Test B pre/postemergence soybean; assay type: in vivo, Glycine max
Procedure, shortened: as §1

[12] = tested on: bamyardgrass; assay: Test B flood test barnyardgrass; assay type: in vivo, Echinochloa crus-galli
Procedure, shortened: as §2

[13] = tested on: wheat; assay: Test B pre/postemergence wheat; assay type: in vivo, Triticum aestivum
Procedure, shortened: as §1

[14] = tested on: purple nutsedge; assay: Test B pre/postemergence purple nutsedge; assay type: in vivo, Cyperus rotundus
Procedure, shortened: as §1

[15] = tested on: wild oat; assay: Test B pre/postemergence wild oat; assay type: in vivo, Avena fatua
Procedure, shortened: as §1

[16] = tested on: crabgrass; assay: Test B pre/postemergence crabgrass; assay type: in vivo, Digitaria sanguinalis
Procedure, shortened: as §1

[17] = Postemergence, Rate 250 g/ha, scale 0 to 10, 0 is no effect, 10 is complete control
[18] = Postemergence, Rate 500 g/ha, scale of 0 to 10 where 0 is no effect and 10 is complete control
[19] = Preemergence, Rate 62 g/ha, scale 0 to 10 (0 no effect, 10 complete control)
[20] = Preemergence, Rate 125 g/ha, scale of 0 to 10 where 0 is no effect and 10 is complete control
[21] = Preemergence, Rate 250 g/ha, scale 0 to 10, 0 is no effect, 10 is complete control
[22] = Preemergence, Rate 500 g/ha, scale 0 to 10, 0 is no effect, 10 is complete control
[23] = Rate 125 g/ha, Postemergence, scale 0 to 10, 0 is no effect, 10 is complete control
[24] = Rate 62 g/ha, Postemergence, scale of 0 to 10 where 0 is no effect and 10 is complete control
[25] = Rate 500 g/ha, scale of 0 to 10 where 0 is no effect and 10 is complete control
[26] = Rate 125 g/ha, scale 0 to 10, 0 is no effect, 10 is complete control
[27] = flood test species, listed under Postemergence, Rate 250 g/ha, scale 0 to 10, 0 is no effect, 10 is complete control
[28] = Preemergence, Rate 250 g/ha, scale of 0 to 10 where 0 is no effect and 10 is complete control

CC(C)N(C(=O)n1oc(=O)n(C(CF)CF)c1=O)c1ccccc1 [Compound 421]
10: Plant response rating, Redroot pigweed [1, 20] | Redroot pigweed plant response rating [1, 21] | Redroot pigweed plant response rating [1, 22] | Velvetleaf plant response rating [6, 21] | Velvetleaf plant response rating [6, 22] | B. signalgrass plant response rating [7, 18] | Blackgrass plant response rating [8, 18] | Plant response rating, Blackgrass [8, 20] | Blackgrass plant response rating [8, 28] | Blackgrass plant response rating [8, 22] | Plant response rating, Giant foxtail [9, 20] | Giant foxtail plant response rating [9, 21] | Giant foxtail plant response rating [9, 22] | Morningglory plant response rating [10, 18] | Soybean plant response rating [11, 22] | Wild oats plant response rating [15, 21] | Wild oats plant response rating [15, 22] | Crabgrass plant response rating [16, 22]
4: Bedstraw plant response rating [5, 26] | Plant response rating, Velvetleaf [6, 17] | Plant response rating, Morningglory [10, 19] | Plant response rating, Soybean [11, 19] | Plant response rating, Soybean [11, 20] | Plant response rating, Wheat [13, 19] | Plant response rating, Wheat [13, 20] | Crabgrass plant response rating [16, 24]
6: Cocklebur plant response rating [2, 18] | Plant response rating, Morningglory [10, 20] | Soybean plant response rating [11, 23] | Plant response rating, Wild oats [15, 19]
8: Redroot pigweed plant response rating [1, 18] | Plant response rating, Redroot pigweed [1, 19] | Plant response rating, Velvetleaf [6, 19] | Plant response rating, B. signalgrass [7, 20] | Plant response rating, Blackgrass [8, 17] | Plant response rating, Blackgrass [8, 19] | Blackgrass plant response rating [8, 24] | Blackgrass plant response rating [8, 23] | Giant foxtail plant response rating [9, 24] | Morningglory plant response rating [10, 22] | Morningglory plant response rating [10, 23] | Soybean plant response rating [11, 18] | Wild oats plant response rating [15, 18] | Plant response rating, Crabgrass [16, 17] | Crabgrass plant response rating [16, 18] | Plant response rating, Crabgrass [16, 19] | Plant response rating, Crabgrass [16, 20]
2: Redroot pigweed plant response rating [1, 23] | Rice plant response rating [4, 25] | Plant response rating, Rice [4, 27] | Plant response rating, Barnyardgrass [12, 27] | Nutsedge plant response rating [14, 18]
3: B. signalgrass plant response rating [7, 23] | Barnyardgrass plant response rating ([12]; Postemergence section (flood test species), Rate 500 g/ha, scale of 0 to 10 where 0 is no effect and 10 is complete control)
1: Plant response rating, Cocklebur [2, 17] | Wheat plant response rating [13, 23]
9: Plant response rating, Velvetleaf [6, 20] | B. signalgrass plant response rating [7, 28] | B. signalgrass plant response rating ([7]; Preemergence, Rate 500 g/ha, scale of 0 to 10 where 0 is no effect and 10 is complete control) | Plant response rating, Giant foxtail [9, 17] | Giant foxtail plant response rating [9, 18] | Plant response rating, Giant foxtail [9, 19] | Giant foxtail plant response rating [9, 23] | Plant response rating, Morningglory [10, 17] | Wheat plant response rating [13, 22] | Crabgrass plant response rating [16, 21]
7: Plant response rating, Bedstraw ([5]; Rate 250 g/ha, scale 0 to 10, 0 is no effect, 10 is complete control) | Bedstraw plant response rating [5, 25] | Velvetleaf plant response rating [6, 18] | Plant response rating, B. signalgrass [7, 17] | Plant response rating, B. signalgrass [7, 19] | Morningglory plant response rating [10, 21] | Plant response rating, Soybean [11, 17] | Wheat plant response rating [13, 18] | Wheat plant response rating [13, 21] | Plant response rating, Wild oats [15, 20] | Crabgrass plant response rating [16, 23]
5: Plant response rating, Redroot pigweed [1, 17] | Soybean plant response rating [11, 21]
0: Plant response rating, Cocklebur [2, 19] | Plant response rating, Cocklebur [2, 20] | Cocklebur plant response rating [2, 22] | Cocklebur plant response rating [2, 24] | Cocklebur plant response rating [2, 23] | S. Flatsedge plant response rating [3, 25] | S. Flatsedge plant response rating [3, 26] | Plant response rating, S. Flatsedge [3, 27] | Rice plant response rating [4, 26] | Velvetleaf plant response rating [6, 23] | B. signalgrass plant response rating [7, 24] | Barnyardgrass plant response rating ([12]; Rate 62 g/ha, Postemergence (flood test species), scale of 0 to 10 where 0 is no effect and 10 is complete control) | Barnyardgrass plant response rating ([12]; Rate 125 g/ha, Postemergence section (flood test species), scale 0 to 10, 0 is no effect, 10 is complete control) | Plant response rating, Nutsedge [14, 17] | Plant response rating, Nutsedge [14, 19] | Plant response rating, Nutsedge [14, 20] | Nutsedge plant response rating [14, 21] | Nutsedge plant response rating [14, 22] | Nutsedge plant response rating [14, 23] | Wild oats plant response rating [15, 23]
